Tested on: GCase
Assay: FTI treatment of DASYN53 mice: GCase maturation and activity in midbrain
Assay type: in vivo
Conditions: i.p. 0.9 mg/kg, 26d
Procedure: FIGS. 7A, 7B, 7C, 7D, and 7E. FTI treatment restores functional membrane-associated ykt6 complexes in DASYN53 mice. 7A) Immunohistochemistry in the midbrain of mice showing ykt6, tyrosine hydroxylase (TH), NeuN, and nuclei (DAPI). Scale bar, 50 μm. 7B) Ykt6 membrane shift analysis in olfactory bulbs of FTI (LNK-754)-injected DASYN53 mice (12-14 months, i.p. 26d, 0.9 mg/kg) (n=5, non-transgenic (nTg)+veh; n=4, DASYN53+veh; n=4 DASYN53+FTI). GAPDH and sec22b are loading controls. 7C) SEC/western blot analysis of midbrains of FTI-treated DASYN53 mice. Inputs are shown on the left. NSE is a loading control. […] (n=3, nTg+veh; n=4, DASYN53+veh; n=4 DASYN53+FTI). 7D) Quantification of complexes from SEC in 7C. 7E) GCase maturation was assessed in midbrain lysates by endo H resistance (n=4, nTg+veh; n=4, DASYN53+veh; n=4 DASYN53+FTI). For all quantifications, each point represents a measurement from an individual animal. […]
FIGS. 8A, 8B, 8C, 8D, 8E, and 8F. […] 8B & 8C) Quantification of soluble and insoluble a-syn from midbrains of FTI-treated DASYN53 mice normalized to total protein (CBB). […] 8D) Midbrain TH levels were quantified by western blot of FTI-treated DASYN53 mice (n=3). […]
Analysis of post-ER GCase. […] Endo H resistant bands migrating at 62-64 kDa were measured as post-ER forms of GCase, and normalized to GAPDH levels. […]

C#Cc1cccc(-c2cc(=O)n(C)c3ccc([C@](O)(c4ccc(Cl)cc4)c4cncn4C)cc23)c1 [LNK-754]
enhancement of GCase activity in midbrain: ca. 40% | GCase trafficking (mature, endo H resistant forms) (midbrain lysates): enhanced GCase trafficking
